Numbers after ± are expanded uncertainties.
Settings: Liquid, Closed cell (Static) method

SMILES | vapor or sublimation pressure (278.15 K) [kPa] | vapor or sublimation pressure (283.15 K) [kPa] | vapor or sublimation pressure (288.15 K) [kPa] | vapor or sublimation pressure (293.15 K) [kPa] | vapor or sublimation pressure (298.15 K) [kPa] | vapor or sublimation pressure (303.15 K) [kPa] | vapor or sublimation pressure (308.15 K) [kPa] | vapor or sublimation pressure (313.15 K) [kPa] | vapor or sublimation pressure (318.15 K) [kPa] | vapor or sublimation pressure (323.15 K) [kPa]
CC12CCC(CC1)C(C)(C)O2 [1,3,3-trimethyl-2-oxabicyclo[2.2.2]octane] | 0.071 ± 0.002 | 0.093 ± 0.002 | 0.13 ± 0.002 | 0.178 ± 0.003 | 0.253 ± 0.003 | 0.346 ± 0.004 | 0.477 ± 0.006 | 0.627 ± 0.007 | 0.828 ± 0.009 | 1.101 ± 0.011
CCO [ethanol] | 2.264 ± 0.021 | 3.147 ± 0.024 | 4.327 ± 0.032 | 5.876 ± 0.04 | 7.798 ± 0.051 | 10.41 ± 0.066 | 13.71 ± 0.084 | 17.9 ± 0.1 | 23.06 ± 0.13 | 29.46 ± 0.15
